Results from publication PMC5827430, “Oxidation of the FAD cofactor to the 8-formyl-derivative in human electron-transferring flavoprotein” (The Journal of Biological Chemistry, 2018).
Where a chain is given by its changes, count along the chain named.

Legend:
[1] = target: T1, hETF (human electron-transferring flavoprotein) (Homo sapiens, UniProt P13804+P38117, P13804:H286A); assay: HPLC analysis of extracted cofactor; assay type: binding; settings: purified at pH 7.0
T1 construct: gene ETFA; mature heterodimer from E. coli BL21(DE3), pET-28a+ operon; alpha from Gln-20; N-terminal His6 on beta (tag kept)
T1 sequence (P13804 20-333 H286A): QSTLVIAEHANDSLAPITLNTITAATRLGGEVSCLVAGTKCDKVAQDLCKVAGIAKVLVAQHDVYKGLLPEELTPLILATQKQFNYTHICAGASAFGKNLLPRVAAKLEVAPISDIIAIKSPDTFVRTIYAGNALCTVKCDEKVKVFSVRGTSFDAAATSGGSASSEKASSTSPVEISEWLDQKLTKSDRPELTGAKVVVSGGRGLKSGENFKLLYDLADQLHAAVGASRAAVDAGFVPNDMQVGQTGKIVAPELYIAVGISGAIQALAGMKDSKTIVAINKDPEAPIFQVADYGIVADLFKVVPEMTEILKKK
T1 sequence (P38117 1-255): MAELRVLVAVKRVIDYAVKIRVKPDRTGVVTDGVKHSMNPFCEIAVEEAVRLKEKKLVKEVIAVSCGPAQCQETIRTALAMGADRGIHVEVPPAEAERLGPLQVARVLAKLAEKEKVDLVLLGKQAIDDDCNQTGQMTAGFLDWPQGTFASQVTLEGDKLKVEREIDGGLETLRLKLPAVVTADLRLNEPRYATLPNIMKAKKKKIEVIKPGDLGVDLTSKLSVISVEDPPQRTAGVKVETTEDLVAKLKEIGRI

[2] = target: T2, hETF (human electron-transferring flavoprotein) (Homo sapiens, UniProt P13804+P38117, P38117:E165A); assay: UV-visible absorption; steady-state kinetics of the FAD form; settings: purified at pH 7.0
T2 construct: gene ETFA; mature heterodimer from E. coli BL21(DE3), pET-28a+ operon; alpha from Gln-20; N-terminal His6 on beta (tag kept)
T2 sequence (P13804 20-333): T1 sequence (P13804 20-333 H286A) with A267H
T2 sequence (P38117 1-255 E165A): T1 sequence (P38117 1-255) with E165A

SMILES: Cc1cc2nc3c(=O)[nH]c(=O)nc-3n(C[C@H](O)[C@H](O)[C@H](O)COP(=O)(O)OP(=O)(O)OC[C@H]3O[C@@H](n4cnc5c(N)ncnc54)[C@H](O)[C@@H]3O)c2cc1C [FAD]
- HPLC analysis of extracted cofactor [1]: the FAD cofactor was bound weakly to the αH286A variant
- UV-visible absorption; steady-state kinetics of the FAD form [2]: FAD formylation was absent in the freshly purified variant βE165A
